# Entries after “also recorded” stand apart in the source; their conditions may differ.
# Tests used:
# [1] = Metabolic stability in rat liver microsomes; format: in vitro ADME; details: for half-life at 0.1 μmol/L: rat, pH 7.4
# [2] = Metabolic stability in rat liver microsomes; format: in vitro ADME; details: RLM t1/2 (elimination half-life)
# [3] = biological target: PDE10A (449–770) (Homo sapiens, UniProt Q9Y233); assay: In vitro enzymatic activity assay
# [4] = biological target: PDE8A1 (480–820) (Homo sapiens, UniProt O60658); assay: In vitro enzymatic activity assay, PDE8A1
# PDE8A1 (480–820), sequence (O60658 480-820): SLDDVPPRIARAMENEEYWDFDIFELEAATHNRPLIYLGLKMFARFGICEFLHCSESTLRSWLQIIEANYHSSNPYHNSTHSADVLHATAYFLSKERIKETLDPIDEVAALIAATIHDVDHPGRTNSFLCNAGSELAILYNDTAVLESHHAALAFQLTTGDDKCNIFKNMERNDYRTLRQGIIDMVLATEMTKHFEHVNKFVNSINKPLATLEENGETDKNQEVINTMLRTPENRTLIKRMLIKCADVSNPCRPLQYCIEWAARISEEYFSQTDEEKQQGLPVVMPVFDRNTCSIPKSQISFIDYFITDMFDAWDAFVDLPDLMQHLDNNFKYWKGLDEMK
# [5] = Solubility in deionized water; format: physicochemical; details: pH 7, water
# [6] = Reactivity with cysteine in aqueous phase; format: physicochemical; details: Cys ratio 1:1, 1H NMR in D2O against time
# [7] = tested on: KM mice; assay: Acute toxicity after single oral dose in mice; format: in vivo
# [8] = biological target: hERG potassium channel (versus PDE10A) (Homo sapiens, UniProt Q12809); assay: in vitro
# [9] = In vivo pharmacokinetics of 14·3HCl in rats; design: species or system Sprague–Dawley rats
# [10] = biological target: PDE3A (679–1087) (Homo sapiens, UniProt Q14432); assay: In vitro enzymatic activity assay, PDE3A
# PDE3A (679–1087), sequence (Q14432 679-1087): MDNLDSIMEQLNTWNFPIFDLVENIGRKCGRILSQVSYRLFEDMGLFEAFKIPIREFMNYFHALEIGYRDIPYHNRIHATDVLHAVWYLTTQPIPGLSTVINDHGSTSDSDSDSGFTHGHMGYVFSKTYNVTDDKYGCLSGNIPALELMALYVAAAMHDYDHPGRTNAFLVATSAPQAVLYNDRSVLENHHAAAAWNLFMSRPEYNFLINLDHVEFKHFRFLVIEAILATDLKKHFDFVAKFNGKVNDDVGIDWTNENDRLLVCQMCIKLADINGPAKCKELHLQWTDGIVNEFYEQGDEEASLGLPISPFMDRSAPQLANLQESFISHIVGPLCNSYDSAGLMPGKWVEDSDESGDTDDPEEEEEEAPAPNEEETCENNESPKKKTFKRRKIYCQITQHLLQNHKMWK
# [11] = biological target: PDE7A1 (130–482) (Homo sapiens, UniProt Q13946); assay: In vitro enzymatic activity assay, PDE7A1
# PDE7A1 (130–482), sequence (Q13946 130-482): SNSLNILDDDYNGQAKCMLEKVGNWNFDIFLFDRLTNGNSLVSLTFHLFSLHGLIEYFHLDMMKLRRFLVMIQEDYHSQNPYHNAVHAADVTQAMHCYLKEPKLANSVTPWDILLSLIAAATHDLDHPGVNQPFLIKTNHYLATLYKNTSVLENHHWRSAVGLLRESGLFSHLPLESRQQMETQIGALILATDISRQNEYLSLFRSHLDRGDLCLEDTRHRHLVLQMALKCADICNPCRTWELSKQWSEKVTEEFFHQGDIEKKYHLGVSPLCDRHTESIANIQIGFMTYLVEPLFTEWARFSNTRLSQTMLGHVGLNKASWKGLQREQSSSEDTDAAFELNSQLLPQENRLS
# [12] = biological target: PDE5A1 (535–860) (Homo sapiens, UniProt O76074); assay: In vitro enzymatic activity assay, PDE5A1
# [13] = biological target: T1, human ether-à-go-go-related gene (hERG) potassium channel (Homo sapiens, UniProt Q12809)
# T1 sequence (Q12809 whole entry): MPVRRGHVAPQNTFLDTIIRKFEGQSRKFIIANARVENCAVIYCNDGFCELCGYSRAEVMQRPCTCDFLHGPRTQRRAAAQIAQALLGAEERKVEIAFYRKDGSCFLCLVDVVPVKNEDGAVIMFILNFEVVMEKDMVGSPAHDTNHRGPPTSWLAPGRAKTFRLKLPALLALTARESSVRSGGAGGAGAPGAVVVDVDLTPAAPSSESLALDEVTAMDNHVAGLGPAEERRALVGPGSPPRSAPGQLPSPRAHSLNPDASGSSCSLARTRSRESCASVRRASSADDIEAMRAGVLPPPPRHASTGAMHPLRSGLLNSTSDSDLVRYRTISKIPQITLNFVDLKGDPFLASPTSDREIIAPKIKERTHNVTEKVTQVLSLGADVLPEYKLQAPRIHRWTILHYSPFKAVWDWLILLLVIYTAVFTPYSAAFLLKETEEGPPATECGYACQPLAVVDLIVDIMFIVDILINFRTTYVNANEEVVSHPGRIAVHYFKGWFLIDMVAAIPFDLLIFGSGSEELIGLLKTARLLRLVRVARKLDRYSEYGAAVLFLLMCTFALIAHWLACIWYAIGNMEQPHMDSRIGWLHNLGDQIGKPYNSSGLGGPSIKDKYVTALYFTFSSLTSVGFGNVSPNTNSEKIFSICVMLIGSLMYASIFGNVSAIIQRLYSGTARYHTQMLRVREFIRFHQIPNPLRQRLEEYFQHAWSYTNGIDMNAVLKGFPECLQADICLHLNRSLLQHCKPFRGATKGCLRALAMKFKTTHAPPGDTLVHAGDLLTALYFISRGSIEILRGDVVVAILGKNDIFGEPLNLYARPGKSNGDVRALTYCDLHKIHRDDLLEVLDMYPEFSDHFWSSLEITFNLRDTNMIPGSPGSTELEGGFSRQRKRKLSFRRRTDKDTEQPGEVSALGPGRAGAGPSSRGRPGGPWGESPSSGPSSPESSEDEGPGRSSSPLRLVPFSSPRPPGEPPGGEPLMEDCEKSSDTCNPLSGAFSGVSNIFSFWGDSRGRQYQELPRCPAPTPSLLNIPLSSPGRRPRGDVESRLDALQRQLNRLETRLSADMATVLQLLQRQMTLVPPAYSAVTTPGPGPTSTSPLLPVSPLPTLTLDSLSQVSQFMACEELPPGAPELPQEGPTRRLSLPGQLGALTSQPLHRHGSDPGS
# [14] = biological target: T1, human ether-à-go-go-related gene (hERG) potassium channel; assay: cell-based; details: hERG IC50, peak tail current inhibition, 2−3 cells per concentration
# [15] = biological target: PDE9A2 (181–506) (Homo sapiens, UniProt O76083); assay: In vitro enzymatic activity assay, PDE9A2
# PDE9A2 (181–506), sequence (O76083 241-566): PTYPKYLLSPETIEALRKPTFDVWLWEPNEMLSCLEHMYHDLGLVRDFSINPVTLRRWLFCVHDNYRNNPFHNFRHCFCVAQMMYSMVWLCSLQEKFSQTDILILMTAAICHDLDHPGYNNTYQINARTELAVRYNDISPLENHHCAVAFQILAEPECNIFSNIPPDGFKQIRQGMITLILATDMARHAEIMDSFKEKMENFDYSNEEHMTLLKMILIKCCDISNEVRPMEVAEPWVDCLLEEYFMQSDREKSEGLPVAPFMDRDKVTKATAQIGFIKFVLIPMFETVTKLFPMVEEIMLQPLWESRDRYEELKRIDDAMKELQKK
# [16] = biological target: PDE2A (580–919) (Homo sapiens, UniProt O00408); assay: In vitro enzymatic activity assay, PDE2A
# PDE2A (580–919), sequence (O00408 580-919): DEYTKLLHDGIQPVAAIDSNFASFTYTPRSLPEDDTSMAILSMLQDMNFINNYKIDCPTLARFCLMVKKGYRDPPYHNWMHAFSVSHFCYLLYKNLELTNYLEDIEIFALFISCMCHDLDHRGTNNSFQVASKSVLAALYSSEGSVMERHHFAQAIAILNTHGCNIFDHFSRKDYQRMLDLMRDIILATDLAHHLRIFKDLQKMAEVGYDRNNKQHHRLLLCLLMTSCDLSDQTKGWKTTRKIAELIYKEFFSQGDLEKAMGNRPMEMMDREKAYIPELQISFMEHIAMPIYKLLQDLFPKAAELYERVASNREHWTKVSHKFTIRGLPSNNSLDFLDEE
# [17] = biological target: PDE4D2 (86–413) (Homo sapiens, UniProt Q08499); assay: In vitro enzymatic activity assay, PDE4D2
# PDE4D2 (86–413), sequence (Q08499 388-715): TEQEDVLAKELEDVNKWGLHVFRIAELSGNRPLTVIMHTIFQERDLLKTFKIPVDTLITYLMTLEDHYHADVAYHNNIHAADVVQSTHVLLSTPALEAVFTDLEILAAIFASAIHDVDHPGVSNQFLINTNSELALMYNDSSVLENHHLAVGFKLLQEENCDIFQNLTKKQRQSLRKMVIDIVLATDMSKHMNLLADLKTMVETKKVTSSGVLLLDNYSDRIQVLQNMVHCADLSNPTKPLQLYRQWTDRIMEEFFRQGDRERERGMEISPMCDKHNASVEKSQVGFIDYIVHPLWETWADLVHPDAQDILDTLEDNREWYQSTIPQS
# [18] = biological target: PDE1B (10–487) (Homo sapiens, UniProt Q01064); assay: In vitro enzymatic activity assay, PDE1B
# PDE1B (10–487), sequence (Q01064 10-487): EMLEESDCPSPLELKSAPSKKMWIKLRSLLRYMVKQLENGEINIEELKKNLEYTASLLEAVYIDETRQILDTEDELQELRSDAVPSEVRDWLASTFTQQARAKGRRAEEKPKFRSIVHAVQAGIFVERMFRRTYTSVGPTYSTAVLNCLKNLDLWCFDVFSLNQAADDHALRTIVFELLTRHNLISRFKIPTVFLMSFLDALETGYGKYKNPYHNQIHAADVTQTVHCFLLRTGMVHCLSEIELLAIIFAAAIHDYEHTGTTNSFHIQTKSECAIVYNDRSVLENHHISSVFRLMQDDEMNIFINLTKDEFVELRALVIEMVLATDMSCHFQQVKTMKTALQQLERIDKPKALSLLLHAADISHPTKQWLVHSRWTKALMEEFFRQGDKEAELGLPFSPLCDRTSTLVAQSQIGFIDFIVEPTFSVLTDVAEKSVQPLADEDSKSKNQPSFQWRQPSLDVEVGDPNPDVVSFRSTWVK
# [19] = tested on: monocrotaline (MCT)-induced PAH rat model; assay: Monocrotaline; format: in vivo; details: for mean pulmonary artery pressure (mPAP) / right ventricle hypertrophy index (RVHI%) / wall thickness percentage (WT%): p.o. for 3 weeks, 14·3HCl 2.5 mg/kg, tadalafil 5.0 mg/kg, vs model group
# [20] = male, Sprague-Dawley, rat, plasma, iv, 2.5 mg/kg
# [21] = male, Sprague-Dawley, rat, plasma, po, 10 mg/kg
# PDE10A (449–770), sequence (Q9Y233 715-1036): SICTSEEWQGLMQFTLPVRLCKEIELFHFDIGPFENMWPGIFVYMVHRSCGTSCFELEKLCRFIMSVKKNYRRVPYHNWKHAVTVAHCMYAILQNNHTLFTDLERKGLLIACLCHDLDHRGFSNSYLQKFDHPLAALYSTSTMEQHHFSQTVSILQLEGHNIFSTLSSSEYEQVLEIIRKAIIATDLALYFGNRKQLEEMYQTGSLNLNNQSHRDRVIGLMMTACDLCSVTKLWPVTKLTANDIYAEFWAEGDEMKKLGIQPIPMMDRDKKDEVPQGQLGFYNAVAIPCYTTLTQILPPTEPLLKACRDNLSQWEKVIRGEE
structure (smiles),measurement,setting,value
"Cc1ccc2c(c1)nc(/C=C/c1cccc3cccnc13)n2-c1cccc(OCCCN2CCOCC2)c1.Cl [13·3HCl, (E)-4-(3-(3-(5-Methyl-2-(2-(quinolin-8-yl)vinyl)-1H-benzo[d]imidazole-1-yl)phenoxy)propyl)morpholine hydrochloride]",CLint (intrinsic body clearance),[1],127.7 mL/(min·g·protein)
same,half-life at 0.1 μmol/L,[1],16 min
"Cc1ccc2c(c1)nc(/C=C/c1cccc3cccnc13)n2-c1ccccc1 [Compound 4, (E)-8-(2-(5-Methyl-1-phenyl-1H-benzo[d]imidazol-2-yl)vinyl)quinoline]",half-life at 1.5 μmol/L,[2],17.4 min
same,enhancement of PDE10A inhibition relative to compound 2,[3]; C=C bond instead of C–C single bond,3 fold
"COc1cccc(-n2c(/C=C/c3cccc4cccnc34)nc3cc(C)ccc32)c1 [Compound 10, (E)-8-(2-(1-(3-Methoxyphenyl)-5-methyl-1H-benzo[d]imidazole-2-yl)vinyl)quinoline]",CLint (intrinsic body clearance),[1],999.4 mL/(min·g·protein)
same,half-life at 0.1 μmol/L,[1],2.1 min
"Cc1ccc2c(c1)nc(/C=C/c1cccc3cccnc13)n2-c1cccc(S(=O)(=O)N2CCN(C)CC2)c1 [Compound 11, (E)-8-(2-(5-Methyl-1-(3-((4-methylpiperazin-1-yl)sulfonyl)phenyl)-1H-benzo[d]imidazole-2-yl)vinyl) quinoline]",CLint (intrinsic body clearance),[1],1390 mL/(min·g·protein)
same,half-life at 0.1 μmol/L,[1],1.5 min
"Cc1ccc2c(c1)nc(/C=C/c1cccc3cccnc13)n2-c1cccc(CN2CCN(C)CC2)c1 [Compound 12, (E)-8-(2-(5-Methyl-1-(3-((4-methylpiperazin-1-yl)methyl)phenyl)-1H-benzo[d]imidazole-2-yl)vinyl) quinoline]",CLint (intrinsic body clearance),[1],198.1 mL/(min·g·protein)
same,half-life at 0.1 μmol/L,[1],11 min
"Cc1ccc2c(c1)nc(/C=C/c1cccc3cccnc13)n2-c1cccc(OCCCN2CCN(C)CC2)c1.Cl [Compound 14·3HCl, (E)-8-(2-(5-Methyl-1-(3-(3-(4-methylpiperazin-1-yl)propoxy)phenyl)-1H-benzo[d]imidazole-2-yl)vinyl)quinoline hydrochloride]",IC50,[4],> 10 µM
same,Selectivity fold,[4]; IC50(PDE8A1)/IC50(PDE10A2),>3500 fold
same,solubility,[5],4700 µg/mL
same,reactivity of C=C bridge with cysteine,[6],insensitive to react with cysteine
same,acute toxicity,[7]; oral administration,no obvious acute toxicity
same,dose well tolerated,[7]; single oral dose,≤ 1.0 g/kg
same,selectivity ratio,[8],1600
same,AUC(0-inf),[9]; [20],1820 ± 297 ng·h/mL
same,AUC(0-t),[9]; [20],1670 ± 184 ng·h/mL
same,Cmax,[9]; [20],230 ± 50 ng/mL
same,MRT last,[9]; [20],6.3 ± 0.8 h
same,Tmax,[9]; [20],0.4 ± 0.4 h
same,clearance,[9]; [20],23.3 mL/min/kg
same,half-life,[9]; [20],402 ± 90 min
same,AUC(0-inf),[9]; [21],3550 ± 1010 ng·h/mL
same,AUC(0-t),[9]; [21],3310 ± 812 ng·h/mL
same,Cmax,[9]; [21],272 ± 25 ng/mL
same,MRT last,[9]; [21],8.4 ± 0.7 h
same,Tmax,[9]; [21],6 ± 2 h
same,half-life,[9]; [21],312 ± 54 min
same,"bioavailability, fold higher than A","[9]; rats, oral",~20 fold
same,IC50,[10],> 10 µM
same,Selectivity fold,[10]; IC50(PDE3A)/IC50(PDE10A2),>3500 fold
same,IC50,[11],> 10 µM
same,Selectivity fold,[11]; IC50(PDE7A1)/IC50(PDE10A2),>3500 fold
same,IC50,[12],> 10 µM
same,Selectivity fold,[12]; IC50(PDE5A1)/IC50(PDE10A2),>3500 fold
same,CLint (intrinsic body clearance),[1],85.1 mL/(min·g·protein)
same,half-life at 0.1 μmol/L,[1],25 min
same,safety margin between hERG IC50 and plasma peak concentration (Cmax),[13],36 fold
same,IC50,[14],4.5 µM
same,selectivity over other PDE subtypes,[3]; against other PDE families,> 3500 fold
same,IC50,[15],> 10 µM
same,Selectivity fold,[15]; IC50(PDE9A2)/IC50(PDE10A2),>3500 fold
same,IC50,[16],> 10 µM
same,Selectivity fold,[16]; IC50(PDE2A)/IC50(PDE10A2),>3500 fold
same,IC50,[17],> 10 µM
same,Selectivity fold,[17]; IC50(PDE4D2)/IC50(PDE10A2),>3500 fold
same,IC50,[18],> 10 µM
same,Selectivity fold,[18]; IC50(PDE1B)/IC50(PDE10A2),>3500 fold
same,improvement of PAH medical indicators,[19]; 14·3HCl 2.5 mg/kg p.o. compared with tadalafil 5.0 mg/kg p.o.,comparable to tadalafil; also recorded: significantly ameliorating these PAH medical indicators; also recorded: significantly improved typical disease medical indicators
same,mean pulmonary artery pressure (mPAP),[19],decreased
same,right ventricle hypertrophy index (RVHI%),[19],decreased
same,wall thickness percentage (WT%),[19],decreased
"CN1CC(=O)N2[C@H](c3ccc4c(c3)OCO4)c3[nH]c4ccccc4c3C[C@@H]2C1=O [tadalafil, reference compound]",mean pulmonary artery pressure (mPAP),[19],decreased
same,right ventricle hypertrophy index (RVHI%),[19],decreased
same,wall thickness percentage (WT%),[19],decreased

# Source: paper PMC7745062 (Acta Pharmaceutica Sinica. B, 2020)
